Experimental data from patent publication US10899754B2, “Modulators of indoleamine 2,3-dioxygenase” (GLAXOSMITHKLINE INTELLECTUAL PROPERTY DEVELOPMENT LIMITED, priority 2016, dated 2021).

Assays:
[1] = target: indoleamine 2, 3-dioxygenase (IDO1) (Homo sapiens, UniProt P14902); test: IDO1 PBMC RapidFire MS assay (kynurenine detection by mass spectrometry); format: cell-based; design: to induce the expression of indoleamine 2, 3-dioxygenase (IDO1); host or cells: human PBMC stimulated with IFN-gamma and LPS; conditions: human PBMC stimulated with IFN-γ and LPS, 2 days, pIC50, read-out: PBMC PXC50 (converted)
Protocol: IDO1 PBMC RapidFire MS Assay
(§1) Compounds of the present invention were tested via high-throughput cellular assays utilizing detection of kynurenine via mass spectrometry and cytotoxicity as end-points. For the mass spectrometry and cytotoxicity assays, human peripheral blood mononuclear cells (PBMC) (PB003F; AllCells®, Alameda, Calif.) were stimulated with human interferon-γ (IFN-γ) (Sigma-Aldrich Corporation, St. Louis, Mo.) and lipopolysaccharide from Salmonella minnesota (LPS) (Invivogen, San Diego, Calif.) to induce the expression of indoleamine 2, 3-dioxygenase (IDO1). Compounds with IDO1 inhibitory properties decreased the amount of kynurenine produced by the cells via the tryptophan catabolic pathway. Cellular toxicity due to the effect of compound treatment was measured using CellTiter-Glo® reagent (CTG) (Promega Corporation, Madison, Wis.), which is based on luminescent detection of ATP, an indicator of metabolically active cells.
(§2) In preparation for the assays, test compounds were serially diluted 3-fold in DMSO from a typical top concentration of 1 mM or 5 mM and plated at 0.5 μL in 384-well, polystyrene, clear bottom, tissue culture treated plates with lids (Greiner Bio-One, Kremsmünster, Austria) to generate 11-point dose response curves. Low control wells (0% kynurenine or 100% cytotoxicity) contained either 0.5 μL of DMSO in the presence of unstimulated (−IFN-γ/−LPS) PBMCs for the mass spectrometry assay or 0.5 μL of DMSO in the absence of cells for the cytotoxicity assay, and high control wells (100% kynurenine or 0% cytotoxicity) contained 0.5 μL of DMSO in the presence of stimulated (+IFN-γ/+LPS) PBMCs for both the mass spectrometry and cytotoxicity assays.
(§3) Frozen stocks of PBMCs were washed and recovered in RPMI 1640 medium (Thermo Fisher Scientific, Inc., Waltham, Mass.) supplemented with 10% v/v heat-inactivated fetal bovine serum (FBS) (Thermo Fisher Scientific, Inc., Waltham, Mass.), and 1× penicillin-streptomycin antibiotic solution (Thermo Fisher Scientific, Inc., Waltham, Mass.). The cells were diluted to 1,000,000 cells/mL in the supplemented RPMI 1640 medium. 50 μL of either the cell suspension, for the mass spectrometry assay, or medium alone, for the cytotoxicity assay, were added to the low control wells, on the previously prepared 384-well compound plates, resulting in 50,000 cells/well or 0 cells/well respectively. IFN-γ and LPS were added to the remaining cell suspension at final concentrations of 100 ng/ml and 50 ng/ml respectively, and 50 μL of the stimulated cells were added to all remaining wells on the 384-well compound plates. The plates, with lids, were then placed in a 37° C., 5% CO2 humidified incubator for 2 days.
(§4) Following incubation, the 384-well plates were removed from the incubator and allowed to equilibrate to room temperature for 30 minutes. For the cytotoxicity assay, CellTiter-Glo® was prepared according to the manufacturer's instructions, and 40 μL were added to each plate well. After a twenty minute incubation at room temperature, luminescence was read on an EnVision® Multilabel Reader (PerkinElmer Inc., Waltham, Mass.). For the mass spectrometry assay, 10 μL of supernatant from each well of the compound-treated plates were added to 40 μL of acetonitrile, containing 10 μM of an internal standard for normalization, in 384-well, polypropylene, V-bottom plates (Greiner Bio-One, Kremsmünster, Austria) to extract the organic analytes. Following centrifugation at 2000 rpm for 10 minutes, 10 μL from each well of the acetonitrile extraction plates were added to 90 μL of sterile, distilled H2O in 384-well, polypropylene, V-bottom plates for analysis of kynurenine and the internal standard on the RapidFire 300 (Agilent Technologies, Santa Clara, Calif.) and 4000 QTRAP MS (SCIEX, Framingham, Mass.). MS data were integrated using Agilent Technologies' RapidFire Integrator software, and data were normalized for analysis as a ratio of kynurenine to the internal standard. […]

[2] = system: human peripheral blood mononuclear cells (PBMC); test: PBMC cytotoxicity assay (CellTiter-Glo); format: cell-based; conditions: 2 days, pCC50
Protocol: as §1, §2, §3, §4

Chain of indoleamine 2, 3-dioxygenase (IDO1) (P14902 whole entry): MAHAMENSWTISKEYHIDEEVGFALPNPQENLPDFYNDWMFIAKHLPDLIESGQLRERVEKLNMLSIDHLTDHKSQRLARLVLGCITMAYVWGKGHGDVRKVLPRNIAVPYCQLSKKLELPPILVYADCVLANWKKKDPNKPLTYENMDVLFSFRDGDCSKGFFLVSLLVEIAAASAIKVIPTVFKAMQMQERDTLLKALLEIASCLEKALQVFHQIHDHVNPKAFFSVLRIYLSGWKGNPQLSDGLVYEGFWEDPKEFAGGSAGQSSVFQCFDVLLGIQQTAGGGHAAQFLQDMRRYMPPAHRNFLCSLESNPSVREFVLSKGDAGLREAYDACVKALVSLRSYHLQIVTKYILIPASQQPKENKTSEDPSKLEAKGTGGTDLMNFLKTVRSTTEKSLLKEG

Row | IC50 [1] | Compound | PBMC TOX PXC50 [2]
1 | 0.2 µM | CNC(=O)c1n[nH]c(Nc2cc([C@H](C)CC(=O)O)ccc2N(CC(C)C)C2CCOCC2)n1 [example 237, (3R)-3-(3-{[3-(methylcarbamoyl)-1H-1,2,4-triazol-5-yl]amino}-4-[(2-methylpropyl)(oxan-4-yl)amino]phenyl)butanoic acid] | <5
2 | 0.0316 µM | COCc1ccc(Nc2cc([C@H](C)CC(=O)O)ccc2N(CC(C)C)[C@H]2CC[C@H](OC)CC2)nc1 (racemic) [example 247, (3RS)-3-(3-{[5-(methoxymethyl)pyridin-2-yl]amino}-4-[(2-methylpropyl)[(1rs&,4rs&)-4-methoxycyclohexyl]ami-no]phenyl)butanoic acid] | <5
3 | 0.000794 µM | CC(C)CN(c1ccc([C@H](C)CC(=O)O)cc1Nc1cnc(Cl)nc1)C1CCOCC1 [Example 10, (R)-3-(3-((2-chloropyrimidin-5-yl)amino)-4-(isobutyl(tetrahydro-2H-pyran-4-yl)amino)phenyl)butanoic Acid] | <5
4 | 0.000631 µM | CC(C)CN(c1ccc([C@H](C)CC(=O)O)cc1Nc1ccc(C(F)(F)F)nc1)C1CCOCC1 [Example 7, (R)-3-(4-(isobutyl(tetrahydro-2H-pyran-4-yl)amino)-3-((6-(trifluoromethyl)pyridin-3-yl)amino)phenyl)butanoic Acid] | <5
5 | 2 µM | CC(C)CN(CC(C)C)c1ccc([C@H](C)CC(=O)O)cc1Nc1ccc(=O)n(C)c1 [example 218, (3R)-3-{4-[bis(2-methylpropyl)amino]-3-[(1-methyl-6-oxo-1,6-dihydropyridin-3-yl)amino]phenyl}butanoic acid] | <5
6 | 0.01 µM | COCc1ccc(Nc2cc([C@H](C)CC(=O)O)ccc2N(CC(C)C)[C@H]2CC[C@@H](OC)CC2)nc1 [Example 60, (R)-3-(4-(isobutyl((1s,4S)-4-methoxycyclohexyl)amino)-3-((5-(methoxymethyl)pyridin-2-yl)amino)phenyl)butanoic Acid] | <5
7 | 0.00158 µM | CC(C)CN(CC(C)C)c1ccc(C(C)(C)CC(=O)O)cc1Nc1nc(C(F)(F)F)ns1 [Example 3, 3-(4-(diisobutylamino)-3-((3-(trifluoromethyl)-1,2,4-thiadiazol-5-yl)amino)phenyl)-3-methylbutanoic Acid] | <5
8 | 0.02 µM | CC(C)CN(c1ccc([C@H](C)CC(=O)NO)cc1Nc1nc(C(F)(F)F)ns1)C1CCOCC1 [example 233, (3R)-N-hydroxy-3-{4-[(2-methylpropyl)(oxan-4-yl)amino]-3-{[3-(trifluoromethyl)-1,2,4-thiadiazol-5-yl]amino}phenyl}butanoic amide] | <5
9 | 0.00794 µM | CC(C)CN(c1ccc([C@H](C)CC(=O)O)cc1Nc1n[nH]c(C(N)=O)n1)C1CCCCC1 [Example 84, (R)-3-(3-((5-carbamoyl-1H-1,2,4-triazol-3-yl)amino)-4-(cyclohexyl(isobutyl)amino)phenyl)butanoic Acid] | <5
10 | 0.00158 µM | COC(=O)N1CCC(N(CC(C)C)c2ccc([C@H](C)CC(=O)O)cc2Nc2nc(C(F)(F)F)ns2)CC1 [Example 66] | 5.2
11 | 0.00126 µM | CC(C)CN(c1ccc([C@H](C)Cc2nnn[nH]2)cc1Nc1nc(C(F)(F)F)ns1)C1CCOCC1 [Example 99, (R)-4-(1-(1H-tetrazol-5-yl)propan-2-yl)-N^1-isobutyl-N^1-(tetrahydro-2H-pyran-4-yl)-N^2-(3-(trifluoromethyl)-1,2,4-thiadiazol-5-yl)benzene-1,2-diamine] | <5
12 | 0.00398 µM | CC(C)CN(c1ccc([C@H](C)CC(=O)O)cc1Nc1ccc(C(F)(F)F)cn1)C1CCOCC1 [Example 27, (R)-3-(4-(isobutyl(tetrahydro-2H-pyran-4-yl)amino)-3-((5-(trifluoromethyl)pyridin-2-yl)amino)phenyl)butanoic Acid] | <5
13 | 2 µM | Cc1ccc(CC(=O)Nc2cc(-c3ccccc3C(=O)O)ccc2N(CC(C)C)C23CC(C2)C3)cc1 [example 268, 4′-({bicyclo[1.1.1]pentan-1-yl}(2-methylpropyl)amino)-3′-[2-(4-methylphenyl)acetamido]-[1,1′-biphenyl]-2-carboxylic acid] | <5
14 | 3.16 µM | CC(C)CN(c1ccc([C@H](C)CC(=O)O)cc1Nc1nc(C(N)=O)c[nH]1)C1CCOCC1 [example 230, (3R)-3-{3-[(4-carbamoyl-1H-imidazol-2-yl)amino]-4-[(2-methylpropyl)(oxan-4-yl)amino]phenyl}butanoic acid] | <5
15 | 0.0501 µM | CC(C)CN(CCCCCN)c1ccc([C@H](C)CC(=O)O)cc1Nc1nc(C(F)(F)F)ns1 [example 229, (3R)-3-{4-[(5-aminopentyl)(2-methylpropyl)amino]-3-{[3-(trifluoromethyl)-1,2,4-thiadiazol-5-yl]amino}phenyl}butanoic acid] | <5
16 | 0.398 µM | CC(C)CN(CC(C)C)c1ccc([C@H](C)CC(=O)O)cc1Nc1nc(C(F)(F)F)cn1COCC[Si](C)(C)C [example 220, (3R)-3-{4-[bis(2-methylpropyl)amino]-3-{[4-(trifluoromethyl)-1-{[2-(trimethylsilyl)ethoxy]methyl}-1H-imidazol-2-yl]amino}phenyl}butanoic acid] | <5
17 | 0.00631 µM | CC(C)CN(c1ccc([C@H](C)CC(=O)O)cc1Nc1ccc(Cl)c(Cl)n1)C1CCOCC1 [Example 33, (R)-3-(3-((5,6-Dichloropyridin-2-yl)amino)-4-(isobutyl(tetrahydro-2H-pyran-4-yl)amino)phenyl)butanoic Acid] | <5
18 | 0.126 µM | CC(C)CN(c1ccc([C@H](C)CC(=O)O)cc1Nc1n[nH]c(C#N)n1)C1CCOCC1 [example 226, (3R)-3-{3-[(5-cyano-1H-1,2,4-triazol-3-yl)amino]-4-[(2-methylpropyl)(oxan-4-yl)amino]phenyl}butanoic acid] | <5
19 | 0.126 µM | CC(C)CN(c1ccc([C@H](C)CC(=O)O)cc1Nc1ncc(C#N)cn1)C1CCOCC1 [example 254, (3R)-3-{3-[(5-cyanopyrimidin-2-yl)amino]-4-[(2-methylpropyl)(oxan-4-yl)amino]phenyl}butanoic acid] | <5
20 | 0.0251 µM | CC(C)CN(c1ccc([C@H](C)CC(=O)O)cc1Nc1ccc(C(N)=O)nc1)C1CCOCC1 [example 239, (3R)-3-{3-[(6-carbamoylpyridin-3-yl)amino]-4-[(2-methylpropyl)(oxan-4-yl)amino]phenyl}butanoic acid] | <5
21 | 0.00631 µM | CC(C)CN(c1ccc([C@H](C)CC(=O)NS(C)(=O)=O)cc1Nc1nc(C(F)(F)F)ns1)C1CCOCC1 [Example 107, (R)-3-(4-(Isobutyl(tetrahydro-2H-pyran-4-yl)amino)-3-((3-(trifluoromethyl)-1,2,4-thiadiazol-5-yl)amino)phenyl)-N-(methylsulfonyl)butanamide] | 5.3
